Reference: patent US8802675B2, “Neuroprotective multifunctional compounds and pharmaceutical compositions comprising them” (priority 2009, dated 2014)

Experiments:
[1] = target: T1, total cholinesterase (ChE) (Rattus norvegicus, UniProt P37136); assay: Total cholinesterase inhibition in rat brain homogenates (Ellman); assay type: biochemical
T1 sequence (P37136 32-614): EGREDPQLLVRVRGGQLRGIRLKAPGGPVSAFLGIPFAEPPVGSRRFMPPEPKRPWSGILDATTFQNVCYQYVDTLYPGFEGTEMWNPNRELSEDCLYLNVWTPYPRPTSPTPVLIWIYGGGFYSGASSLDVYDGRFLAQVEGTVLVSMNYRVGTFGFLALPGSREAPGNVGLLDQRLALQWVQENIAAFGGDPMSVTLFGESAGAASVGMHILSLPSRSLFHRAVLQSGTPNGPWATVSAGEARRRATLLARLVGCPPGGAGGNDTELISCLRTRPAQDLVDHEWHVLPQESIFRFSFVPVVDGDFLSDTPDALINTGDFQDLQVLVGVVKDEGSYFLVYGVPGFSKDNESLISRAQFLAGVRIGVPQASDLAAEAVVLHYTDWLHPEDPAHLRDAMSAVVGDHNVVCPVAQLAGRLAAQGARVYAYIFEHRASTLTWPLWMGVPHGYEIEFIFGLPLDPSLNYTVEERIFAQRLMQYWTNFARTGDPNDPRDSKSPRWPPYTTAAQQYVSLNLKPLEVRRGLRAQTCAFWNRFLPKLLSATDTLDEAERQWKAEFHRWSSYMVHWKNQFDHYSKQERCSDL
Protocol: Cholinesterase activity was determined in rat brain homogenate following incubation with varying concentrations of the multifunctional pro-chelators of the invention (also referred to herein as “carbamates”).
Ellman's colorimetric method was adapted for determination of total cholinesterase (ChE) and butyrylcholinesterase (BuChE) activities in rat brain homogenates. Brain tissue from adult Wistar rats was homogenized at 2% w/v (or 10% w/v, for BuChE) in 0.1 M sodium phosphate buffer, pH 7.4, with added NaCl 58.5 g/l and Triton X-100 0.05% v/v. Aliquots of homogenate (20 μl) were incubated with the test compounds for designed time intervals in phosphate buffer pH 7.4, before addition of 5,5′-dithiobis(2-nitrobenzoic) acid and either 1 mM acetylthiocholine iodide or 10 mM butyrylthiocholine iodide (Sigma, St. Louis, Mo.). The reaction was run at 37° C. in a final volume of […] in 96-well microplates and was followed at 412 nm for 5 min with a plate reader. In every experiment, cholinesterase-independent (nonspecific) substrate hydrolysis was determined by including one experimental group treated with tacrine 30 μM. Appropriate tissue and reagent blanks were also included. Reaction velocities were determined in three or four replicates per condition; these were averaged and expressed as percent activity relative to control (solvent), after subtracting the rate of nonspecific hydrolysis.
The results are the mean SEM, n=3 in triplicates. ND—not determined.

[2] = tested on: ChE from rat brain homogenates; assay: Time course of total ChE inhibition at 1 μM versus rivastigmine; assay type: biochemical; details: 1 μM, time course
Protocol: The new carbamates of the present invention are expected to act as rivastigmine and inhibit ChE activity. […] Enzyme activity was determined with Ellman's colorimetric method after addition of substrate, and the results are shown in FIGS. 8A-8B.

rat brain MAO-B = target: T2, rat brain MAO-B (Rattus norvegicus, UniProt P19643); assay: biochemical; details: for inhibition at 10 µM: read-out: percent inhibition MAO-B
T2 construct: from tissue; host or cells: rat brain homogenate
T2 sequence (P19643 1-520): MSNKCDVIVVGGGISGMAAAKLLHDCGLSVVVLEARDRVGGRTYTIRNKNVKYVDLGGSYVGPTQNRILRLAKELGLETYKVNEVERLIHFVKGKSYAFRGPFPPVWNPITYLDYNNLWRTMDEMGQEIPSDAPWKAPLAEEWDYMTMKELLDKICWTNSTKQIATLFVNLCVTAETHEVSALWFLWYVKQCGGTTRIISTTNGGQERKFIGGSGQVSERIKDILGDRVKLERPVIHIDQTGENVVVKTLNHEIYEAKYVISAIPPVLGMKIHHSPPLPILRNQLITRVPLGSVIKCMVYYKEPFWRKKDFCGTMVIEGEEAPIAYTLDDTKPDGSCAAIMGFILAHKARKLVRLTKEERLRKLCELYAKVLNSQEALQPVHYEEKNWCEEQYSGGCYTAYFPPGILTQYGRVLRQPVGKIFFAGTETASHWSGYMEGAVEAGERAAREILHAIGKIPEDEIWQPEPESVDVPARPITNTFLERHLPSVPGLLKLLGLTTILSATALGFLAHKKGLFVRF
Protocol: (§1) Rats were decapitated and the brains were quickly taken into a pre-weighted ice-cold sucrose buffer (10 mM Tris-HCl buffer, pH 7.4, containing 0.32 M sucrose), and their weights were measured. The brains were homogenized at 0-4° C. in 0.32 M sucrose (one part tissue to 20 parts sucrose) in a Teflon glass homogenizer. The resultant homogenates were used to determine MAO activity. Protein concentration was determined with Bradford reagent at 595 nm, using bovine serum albumin as a standard.
(§2) The activity of MAO-A and MAO-B were determined by the adapted method of Tipton & Youdim (Tipton et al. 1983). Briefly, the multifunctional compound tested was added to a suitable dilution of the enzyme preparation (70 μg MAO-B and 150 μg MAO-A) in 0.05 M phosphate buffer (pH 7.4). The mixture was incubated together with 0.05 μM 1-deprenyl, a specific inhibitor of MAO-B (for determination of MAO-A activity in the presence of the test compound) or 0.05 μM clorgyline a specific inhibitor of MAO-A (for determination of MAO-B activity). […] The reaction was stopped with 2M ice-cold citric acid, and the radioactive metabolites (5-hydroxytryptaldehyde and phenylacetaldehyde) were extracted by addition of 2 ml of ethylacetate/toluene (1:1 vol/vol). The radioactivity contained in the organic phase was determined by liquid-scintillation counting in cpm units.
(§3) MAO-A and MAO-B activities were determined in rat brain homogenate in vitro following incubation with varying concentrations of the test compounds.
(§4) The results are the mean SEM, n=3 in triplicates.

rat brain MAO-A = target: T3, rat brain MAO-A (Rattus norvegicus, UniProt P21396); assay: biochemical; details: for IC50: IC50 MAO-A, rat brain homogenate in vitro, mean SEM, n=3 in triplicates
T3 construct: from tissue; host or cells: rat brain homogenate
T3 sequence (P21396 1-526): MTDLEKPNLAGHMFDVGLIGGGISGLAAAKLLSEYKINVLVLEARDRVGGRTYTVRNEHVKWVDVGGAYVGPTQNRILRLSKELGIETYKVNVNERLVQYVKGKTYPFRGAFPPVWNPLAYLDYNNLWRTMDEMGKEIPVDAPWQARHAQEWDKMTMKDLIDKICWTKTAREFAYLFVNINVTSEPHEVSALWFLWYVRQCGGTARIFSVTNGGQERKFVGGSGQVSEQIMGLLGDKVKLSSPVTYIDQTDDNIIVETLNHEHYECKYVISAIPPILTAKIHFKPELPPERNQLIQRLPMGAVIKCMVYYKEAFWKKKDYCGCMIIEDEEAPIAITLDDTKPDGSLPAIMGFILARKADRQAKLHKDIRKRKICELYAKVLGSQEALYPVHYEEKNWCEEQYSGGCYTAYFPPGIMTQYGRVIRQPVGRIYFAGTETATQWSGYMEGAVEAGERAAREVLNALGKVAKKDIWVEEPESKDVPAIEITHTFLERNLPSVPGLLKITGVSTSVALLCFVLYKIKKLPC
Protocol: as §1, §2, §3, §4

[3] = target: T4, rat brain cholinesterase (total ChE) (Rattus norvegicus, UniProt P37136); assay: Kinetics of irreversible cholinesterase inhibition (Kitz-Wilson); assay type: biochemical
T4 construct: rows headed: Ki (dissociation constant for EI); other: rat brain total ChE; mean of 3-4 experiments; k+2 (carbamylation rate constant); other: from ki; rate of carba
T4 sequence (P37136 32-614): T1 sequence (P37136 32-614)
Protocol: To determine kinetic constants of irreversible inhibition, cholinesterase from rat brain homogenates was incubated with the multifunctional compounds of the invention for designed time intervals in phosphate buffer pH 7.4.
The residual cholinesterase activity was immediately measured with the Ellman's colorimetric method after addition of 5,5′-dithiobis(2-nitrobenzoic) acid and 1 mM acetylthiocholine iodide. The inhibition kinetics were assessed according to Kitz-Wilson equation:
[formula] wherein: E represents the enzyme; I represents the intact carbamate (inhibitor); EI is the initial reversible enzyme complex; E* is the carbamylated enzyme; Ki represents the dissociation constant for EI; k+2 is the carbamylation rate constant and k+3 is the decarbamylation rate constant; kapp is the pseudo-first-order inhibition rate constant; ki, the second-order rate inhibition constant, is approximated by k+2/Ki. Under experimental condition [I]>>[E0].
According to equation (2), the logarithm of the ratio of the residual cholinesterase activity (E) and the initial cholinesterase activity (E0) is plotted against the time of incubation. The slopes of the lines representing kapp were determined by linear regression.
The slopes of the lines represent the pseudo-first-order inhibition rate constant (kapp) determined from linear regression analysis. […] The carbamylation rate constant (k+2) was obtained from the y-intercept, and the dissociation constant ([…] was obtained from the slope of the line multiplied by k+2 as described in Materials and Methods.
From these lines, the values of kapp were calculated based on Equation (2) of the Kitz-Wilson equations (see Material and Methods). […] The carbamylation rate constant k+2 is a measure of inactivation of ChE.

[4] = Metal chelation assay (UV-vis spectra of metal complexes); assay type: physicochemical; details: ZnCl2, CuSO4, FeCl3 and FeSO4; 5% NH4Ac, pH=7
From the text: Metal chelation, particularly iron chelation, is an important precondition for the antioxidative-function of the multi-functional compounds of the invention, because it is the excessive iron stores and iron-mediated generation of free radicals in the brain that are thought to be associated with neurodegenerative diseases. The novel strategy, according to the present invention, for the treatment of neurodegenerative diseases such as Alzheimer's disease is the design of pro-chelators that inhibit AChE with a concomitant release of the active chelators. This novel strategy has advantages over the current chelator strategy since it is capable not only of minimizing the potential toxicity associated with strong chelators such as the 8-hydroxyquinoline derivatives disclosed in WO 2004/041151, which might interfere with healthy metal metabolism in the brain, but it also offers multiple activities against AChE, Aβ aggregation, oxidative stress, and metal (Fe, Cu, Zn) dyshomeostasis in the brain. Therefore, a metal chelation assay was used to confirm that the new multifunctional pro-chelators that comprise an N,N-dialkylcarbamoyl moiety [N(RR′)CO—] linked to the oxygen at position 8 of quinoline would have little to no affinity for metal ions in their pro-drug form. When these pro-chelators bind to cholinesterase or AChE in the brain, the N,N-dialkylcarbamoyl moiety is dissociated, thus unmasking a free hydroxyl group at said position 8 of quinoline, turning the pro-chelators into active chelators, which passivate excess cerebral metal ions and protect neuronal cells against reactive oxygen species (ROS).
A spectrophotometric method was used for measurement of metal complexes of the multifunctional pro-chelators of the invention with metal ions selected from Zn^2+, Cu^2+, Fe^3+ and Fe^2+, and compared to the respective metal complexes of some known iron chelators disclosed in WO 2004/041151.
Thus, the metal chelating function of compound 13 and compound 23 as compared to M30 and HLA20, respectively, was measured by dissolving 0.1 mM or 0.2 mM of the test compounds in 5% NH4Ac, pH=7, in the presence and absence of 0.1 mM or 0.2 mM of the metal salts […], CuSO4, FeCl3 and FeSO4, and measuring the UV-vis spectra (Hewlett-Packard 8450A diode array spectrophotometer) of the various metal complexes formed. The results for M30 and compound 13 are shown in FIGS. 1A and 1B, respectively.

[5] = tested on: human SH-SY5Y neuroblastoma cells; assay: MTT cell viability assay in SH-SY5Y cells; assay type: cell-based; details: MTT after 48 h incubation
Protocol: Cell culture. Human neuroblastoma SH-SY5Y cells were obtained from American Type Culture Collection (Rockville, Md., USA). Cells were routinely cultured in MEM-Eagle/F-12(HAM) (1:1), containing 10% FCS and a mixture of 2% sodium bicarbonate, 1% penicillin/streptomycin/nystatin and 1% sodium pyruvate. Cell cultures were incubated at 37° C. in a humid 5% CO2-95% air environment.
Twenty-four hours after attachment of the SH-SY5Y cells, the medium was replaced with DMEM containing 0.1% BSA. The test compounds were added to the cells after 1 h of incubation. After 24 h incubation, the cells were subjected to MTT test as previously described (Gassen et al., 1998). The absorption was determined in a Perkin-Elmer Dual Wavelength Eliza-Reader at λ=570/650 nm after automatic subtraction of background readings. The results are expressed as percentage of the untreated control.
The effect of the iron chelators M30 and HLA20 versus that of the pro-chelators 13 and 23, on viability of human SH-SY5Y cells was tested. Human SH-SY5Y neuroblastoma cells were plated in 100-mm culture dishes and cultured in DMEM (4,500 mg/l glucose), containing 10% FCS (fetal calf serum, Bet Haemek, Israel), and 1% of a mixture of penicillin/streptomycin/nystatin. When cells reached the required confluence, they were detached and re-cultured in microtiter plates (96 wells) pre-coated with collagen ([…]), in DMEM with 10% of fetal calf serum (0.5×10^4 cells/well). Cell viability was tested by the 3-(4,5-dimethylthiazol-2-yl)-2,5-diphenyltetrazolium (MTT) assays after 48 h incubation.

| Structure (SMILES) | IC50 ([1]; rat brain homogenates, mean SEM, n=3 in triplicates) | ChE inhibition compared with rivastigmine and other carbamates [2] | inhibition at 10 µM (rat brain MAO-B) | IC50 (rat brain MAO-A) | inhibition at 50 µM ([1]; read-out: percent inhibition Total ChE) | potency in inhibiting ChE relative to rivastigmine ([3]; from ki) | kinact/KI ([3]; pH 7.4, read-out: ki (second-order rate inhibition constant, approximated by k+2/Ki)) | binding of metal ions (shift of absorbance peak) [4] | inhibitory effect on MAO-B (rat brain MAO-B; rat brain homogenate) | inhibitory effect on MAO-A (rat brain MAO-A; rat brain homogenate) | cell viability ([5]; 10 μM) | cell viability ([5]; 25 μM) | cell viability ([5]; 50 μM) |
| --- | --- | --- | --- | --- | --- | --- | --- | --- | --- | --- | --- | --- | --- |
| C#CCN(C)Cc1ccc(OC(=O)N(C)C)c2ncccc12 [Compound 2, 5-((methyl(propargyl)amino)methyl)quinolin-8-yl dimethylcarbamate] | 520 nM | more potent than | 67% | < 100 nM |  |  |  |  |  |  |  |  |  |
| C#CCN(C)Cc1ccc(OC(=O)NCCCCCC)c2ncccc12 [Compound 4, 5-((methyl(propargyl)amino)methyl)quinolin-8-yl hexylcarbamate] |  |  | 25% | < 100 nM | 43% | half potent | 39 M⁻¹ s⁻¹ |  |  |  |  |  |  |
| C#CCN1CCN(Cc2ccc(O)c3ncccc23)CC1 [HLA20, reference compound] |  |  |  |  |  |  |  | binds the respective metal ions | minor to none inhibitory effects | minor to none inhibitory effects | ≤ 75% | ≤ 75% | almost all the cells died |
